From US20100256137A1, “INDAZOLAMIDE DERIVATIVES” (MERCK PATENT GESELLSCHAFT MIT BESCHRANKTER HAFTUNG, priority 2007, published 2010)

target: T1, Recombinant human HSP90a (Homo sapiens, UniProt P07900); assay: HSP90 radioligand filter binding test ([3H]17AAG competition); conditions: [3H]17AAG 0.08 μM, HSP90 1.5 μg/assay, 22° C., 30 min, pH 7.0; read-out: IC50 (HSP90 inhibition)
T1 construct: host or cells: E. coli
Protocol: In the specific case, a radioligand filter binding test is used. The radioligand used here is tritium-labelled 17-allylaminogeldanamycin, [3H]17AAG. This filter binding test allows a targeted search for inhibitors which interfere with the ATP binding site.
HEPES filter buffer (50 mM HEPES, pH 7.0, 5 mM MgCl2, BSA 0.01%)
Multiscreen FB (1 μm) filter plate (Millipore, MAFBNOB 50).
The 96-well microtitre filter plates are firstly irrigated and coated with 0.1% of polyethylenimine.
The test is carried out under the following conditions:
Reaction temperature 22° C.
Reaction time: 30 min., shaking at 800 rpm
50 mM HEPES HCl, pH 7.0, 5 mM MgCl2, 0.01% (w/v) of BSA
At the end of the reaction, the supernatant in the filter plate is removed by suction with the aid of a vacuum manifold (Multiscreen Separation System, Millipore), and the filter is washed twice.
The filter plates are then measured in a beta counter (Microbeta, Wallac) with scintillator (Microscint 20, Packard).
“% of control” is determined from the “counts per minutes” values, and the IC-50 value of a compound is calculated therefrom.

Row | SMILES | IC50 [nM]
1 | Cc1cccc(Cc2n[nH]c3cc(O)c(C(=O)N4Cc5ccccc5C4)cc23)c1 [Compound A1, 5-(1,3-dihydroisoindol-2-ylcarbonyl)-3-(3-methylbenzyl)-6-hydroxy-1H-indazole] | 10 to 1000
2 | Cc1cccc(Cc2n[nH]c3cc(O)c(C(=O)N4CCc5ccccc5C4)cc23)c1 [Compound A2] | 10 to 1000
3 | COc1cccc(Cc2n[nH]c3cc(O)c(C(=O)N4Cc5ccccc5C4)cc23)c1 [Compound A3, 5-(1,3-Dihydroisoindol-2-ylcarbonyl)-3-(3-methoxybenzyl)-6-hydroxy-1H-indazole] | 10 to 1000
4 | CCCCc1n[nH]c2cc(O)c(C(=O)N3Cc4ccccc4C3)cc12 [Compound A4, 5-(1,3-Dihydroisoindol-2-ylcarbonyl)-3-butyl-6-hydroxy-1H-indazole] | 10 to 1000
5 | O=C(c1cc2c(Cc3cccc(Cl)c3)n[nH]c2cc1O)N1CCC(O)C1 (stereo not drawn) [Compound A5, 5-(3-Hydroxypyrrolidin-1-ylcarbonyl)-3-(3-chlorobenzyl)-6-hydroxy-1H-indazole] | 10 to 1000
6 | O=C(c1cc2c(Cc3cccc(Cl)c3)n[nH]c2cc1O)N1CC[C@@H](O)C1 [Compound A7, 5-((R)-3-Hydroxypyrrolidin-1-ylcarbonyl)-3-(3-chlorobenzyl)-6-hydroxy-1H-indazole] | 10 to 1000
7 | Cc1cccc(Cc2n[nH]c3cc(O)c(C(=O)N4CCOCC4)cc23)c1 [Compound A10] | 10 to 1000
8 | Cc1cccc(Cc2n[nH]c3cc(O)c(C(=O)N4CCc5ccccc54)cc23)c1 [Compound A11] | 10 to 1000
9 | CCCCc1n[nH]c2cc(O)c(C(=O)N3Cc4ccc(Br)cc4C3)cc12 [Compound A14, 5-(5-Bromo-1,3-dihydroisoindol-2-ylcarbonyl)-3-butyl-6-hydroxy-1H-indazole] | 1000 to 10000
10 | CCCc1n[nH]c2cc(O)c(C(=O)N3Cc4ccc(Br)cc4C3)cc12 [Compound A15, 5-(5-Bromo-1,3-dihydroisoindol-2-ylcarbonyl)-3-propyl-6-hydroxy-1H-indazole] | 10 to 1000
11 | Cc1cccc(Cc2n[nH]c3cc(O)c(C(=O)N4CCCC4)cc23)c1 [Compound A16, 5-(Pyrrolidin-1-ylcarbonyl)-3-(3-methylbenzyl)-6-hydroxy-1H-indazole] | 10 to 1000
12 | Cc1cccc(Cc2n[nH]c3cc(O)c(C(=O)N4CCN(C)CC4)cc23)c1 [Compound A17] | 10 to 1000
13 | O=C(c1cc2c(CC3CCCC3)n[nH]c2cc1O)N1Cc2ccccc2C1 [Compound A18, 5-(1,3-Dihydroisoindol-2-ylcarbonyl)-3-cyclopentylmethyl-6-hydroxy-1H-indazole] | 10 to 1000
14 | CCCc1n[nH]c2cc(O)c(C(=O)N3Cc4ccc(N5CCOCC5)cc4C3)cc12 [Compound A19] | 10 to 1000
15 | CCCc1n[nH]c2cc(O)c(C(=O)N3Cc4ccc(N5CCN(C)CC5)cc4C3)cc12 [Compound A20] | 10 to 1000
16 | CCCc1n[nH]c2cc(O)c(C(=O)N3Cc4ccc(OCCN(C)C)cc4C3)cc12 [Compound A26, [5-(2-dimethylaminoethoxy)-1,3-dihydroisoindol-2-yl]-(6-hydroxy-3-propyl-1H-indazol-5-yl)methanone] | 10 to 1000
17 | CC(C)CCc1n[nH]c2cc(O)c(C(=O)N3Cc4ccc(OCCN(C)C)cc4C3)cc12 [Compound A27, [5-(2-dimethylaminoethoxy)-1,3-dihydroisoindol-2-yl]-[6-hydroxy-3-(3-methylbutyl)-1H-indazol-5-yl]methanone] | 10 to 1000
18 | CN(C)CCOc1ccc2c(c1)CN(C(=O)c1cc3c(CC4CCCC4)n[nH]c3cc1O)C2 [Compound A28, (3-cyclopentylmethyl-6-hydroxy-1H-indazol-5-yl)-[5-(2-dimethylaminoethoxy)-1,3-dihydroisoindol-2-yl]methanone] | 10 to 1000

Row | SMILES | IC50 [nM]
19 | CN(C)CCOc1ccc2c(c1)CN(C(=O)c1cc3c(CC4CCCCC4)n[nH]c3cc1O)C2 [Compound A29, (3-cyclohexylmethyl-6-hydroxy-1H-indazol-5-yl)-[5-(2-dimethylaminoethoxy)-1,3-dihydroisoindol-2-yl]methanone] | 10 to 1000
20 | CC(C)CCc1n[nH]c2cc(O)c(C(=O)N3Cc4ccc(OC5CCN(C)CC5)cc4C3)cc12 [Compound A30, [6-hydroxy-3-(3-methylbutyl)-1H-indazol-5-yl]-[5-(1-methylpiperidin-4-yloxy)-1,3-dihydroisoindol-2-yl]methanone] | 10 to 1000
21 | CN1CCC(Oc2ccc3c(c2)CN(C(=O)c2cc4c(CC5CCCC5)n[nH]c4cc2O)C3)CC1 [Compound A31, (3-cyclopentylmethyl-6-hydroxy-1H-indazol-5-yl)-[5-(1-methylpiperidin-4-yloxy)-1,3-dihydroisoindol-2-yl]methanone] | 10 to 1000
22 | CN1CCC(Oc2ccc3c(c2)CN(C(=O)c2cc4c(CC5CCCCC5)n[nH]c4cc2O)C3)CC1 [Compound A32, (3-Cyclohexylmethyl-6-hydroxy-1H-indazol-5-yl)-[5-(1-methylpiperidin-4-yloxy)-1,3-dihydroisoindol-2-yl]methanone] | 10 to 1000
23 | CC(C)CCc1n[nH]c2cc(O)c(C(=O)N3Cc4ccc(OCCCN(C)C)cc4C3)cc12 [Compound A33, [5-(3-Dimethylaminopropoxy)-1,3-dihydroisoindol-2-yl]-[6-hydroxy-3-(3-methylbutyl)-1H-indazol-5-yl]methanone] | 10 to 1000
24 | CN(C)CCCOc1ccc2c(c1)CN(C(=O)c1cc3c(CC4CCCC4)n[nH]c3cc1O)C2 [Compound A34] | 10 to 1000
25 | CN(C)CCCOc1ccc2c(c1)CN(C(=O)c1cc3c(CC4CCCCC4)n[nH]c3cc1O)C2 [Compound A35, (3-Cyclohexylmethyl-6-hydroxy-1H-indazol-5-yl)-[5-(3-dimethylaminopropoxy)-1,3-dihydroisoindol-22-yl]methanone] | 10 to 1000
26 | CCN(C)CCOc1ccc2c(c1)CN(C(=O)c1cc3c(CCC(C)C)n[nH]c3cc1O)C2 [Compound A36, {5-[2-(Ethylmeethylamino)ethoxy]-1,3-dihydroisoindol-22-yl}-[6-hydroxy-3-(3-methylbutyl)-1H-indazol-5-yl]methanone] | 10 to 1000
27 | CCN(C)CCOc1ccc2c(c1)CN(C(=O)c1cc3c(CC4CCCC4)n[nH]c3cc1O)C2 [Compound A37, (3-Cyclopentylmethyl-6-hydroxy-1H-indazol-5-yl)-{5-[2-(ethylmethylamino)ethoxy]-1,3-dihydroisoindol-2-yl}methanone] | 10 to 1000
28 | CCN(C)CCOc1ccc2c(c1)CN(C(=O)c1cc3c(CC4CCCCC4)n[nH]c3cc1O)C2 [Compound A38, (3-Cyclohexylmethyl-6-hydroxy-1H-indazol-5-yl)-{5-[2-(ethylmethylamino)ethoxy]-1,3-dihydroisoindol-2-yl}methanone] | 10 to 1000
29 | CC(C)CCc1n[nH]c2cc(O)c(C(=O)N3Cc4ccc(OCCN5CCCCC5)cc4C3)cc12 [Compound A39, [6-Hydroxy-3-(3-methylbutyl)-1H-indazol-5-yl]-[5-(2-piperidin-1-ylethoxy)-1,3-dihydroisoindol-2-yl]methanone] | 10 to 1000
30 | O=C(c1cc2c(CC3CCCC3)n[nH]c2cc1O)N1Cc2ccc(OCCN3CCCCC3)cc2C1 [Compound A40, (3-Cyclopentylmethyl-6-hydroxy-1H-indazol-5-yl)-[5-(2-piperidin-1-ylethoxy)-1,3-dihydroisoindol-2-yl]methanone] | 10 to 1000
31 | O=C(c1cc2c(CC3CCCCC3)n[nH]c2cc1O)N1Cc2ccc(OCCN3CCCCC3)cc2C1 [Compound A41, (3-Cyclohexylmethyl-6-hydroxy-1H-indazol-5-yl)-[5-(2-piperidin-1-ylethoxy)-1,3-dihydroisoindol-2-yl]methanone] | 10 to 1000
32 | N#CCCCOc1ccc2c(c1)CN(C(=O)c1cc3c(CC4CCCC4)n[nH]c3cc1O)C2 [Compound A43, 4-[2-(3-Cyclopentylmethyl-6-hydroxy-1H-indazole-5-carbonyl)-2,3-dihydro-1H-isoindol-5-yloxy]butyronitrile] | 10 to 1000
33 | O=C(c1cc2c(CC3CCCCC3)n[nH]c2cc1O)N1Cc2ccc(OCCN3CCOCC3)cc2C1 [Compound A47, (3-Cyclohexylmethyl-6-hydroxy-1H-indazol-5-yl)-[5-(2-morpholin-4-ylethoxy)-1,3-dihydroisoindol-2-yl]methanone] | 10 to 1000
34 | CCCc1n[nH]c2cc(O)c(C(=O)N3Cc4ccccc4C3C(=O)NCC)cc12 (stereo not drawn) [Compound A48, N-Ethyl-2-(6-hydroxy-3-propyl-1H-indazole-5-carbonyl)-2,3-dihydro-1H-isoindole-1-carboxamide] | 1000 to 10000
35 | CC(C)Cc1n[nH]c2cc(O)c(C(=O)N3Cc4ccccc4C3)cc12 [Compound A49, (1,3-Dihydroisoindol-2-yl)(6-hydroxy-3-isobutyl-1H-indazol-5-yl)methanone] | 10 to 1000
36 | O=C(c1cc2c(CC3CCCCC3)n[nH]c2cc1O)N1Cc2ccccc2C1 [Compound A50, (3-Cyclohexylmethyl-6-hydroxy-1H-indazol-5-yl)-(1,3-dihydroisoindol-2-yl)methanone] | 10 to 1000
